Source: publication PMC10819570, “Design, Synthesis, and Biological Evaluation of 2-Substituted Aniline Pyrimidine Derivatives as Potent Dual Mer/c-Met Inhibitors” (Molecules, 2024)

Test system: HCT116 cells
Assay: Antiproliferation assay (CCK-8), HCT116
Type: cell-based
Details: Homo sapiens, HCT-116; CCK-8, 72 h; read-out: IC50 antiproliferative HCT116
Method: (§1) Cell viability was measured by Cell Counting Kit-8 (Meilunbio, Dalian, China) according to the manufacturer’s instructions. Briefly, cancer cells were seeded into 96-well plates at a density of 2.5 × 10^3 cells per well. […] Subsequently, CCK-8 solution was added into each well and incubated for an additional 2 h. The absorbance at 450 nm was determined in each well using the BioTek Synergy HTX microplate reader. The assay was performed in triplicate, and each experiment was repeated three times.

IC50 [nM] | Structure (SMILES)
7820 | COc1cc2nccc(Oc3ccc(NC(=O)C4(C(=O)Nc5ccc(F)cc5)CC4)cc3)c2cc1OC [Cabozantinib, reference compound]

Molecular target: c-Met kinase (Homo sapiens, UniProt P08581)
Sequence (P08581 25-1390): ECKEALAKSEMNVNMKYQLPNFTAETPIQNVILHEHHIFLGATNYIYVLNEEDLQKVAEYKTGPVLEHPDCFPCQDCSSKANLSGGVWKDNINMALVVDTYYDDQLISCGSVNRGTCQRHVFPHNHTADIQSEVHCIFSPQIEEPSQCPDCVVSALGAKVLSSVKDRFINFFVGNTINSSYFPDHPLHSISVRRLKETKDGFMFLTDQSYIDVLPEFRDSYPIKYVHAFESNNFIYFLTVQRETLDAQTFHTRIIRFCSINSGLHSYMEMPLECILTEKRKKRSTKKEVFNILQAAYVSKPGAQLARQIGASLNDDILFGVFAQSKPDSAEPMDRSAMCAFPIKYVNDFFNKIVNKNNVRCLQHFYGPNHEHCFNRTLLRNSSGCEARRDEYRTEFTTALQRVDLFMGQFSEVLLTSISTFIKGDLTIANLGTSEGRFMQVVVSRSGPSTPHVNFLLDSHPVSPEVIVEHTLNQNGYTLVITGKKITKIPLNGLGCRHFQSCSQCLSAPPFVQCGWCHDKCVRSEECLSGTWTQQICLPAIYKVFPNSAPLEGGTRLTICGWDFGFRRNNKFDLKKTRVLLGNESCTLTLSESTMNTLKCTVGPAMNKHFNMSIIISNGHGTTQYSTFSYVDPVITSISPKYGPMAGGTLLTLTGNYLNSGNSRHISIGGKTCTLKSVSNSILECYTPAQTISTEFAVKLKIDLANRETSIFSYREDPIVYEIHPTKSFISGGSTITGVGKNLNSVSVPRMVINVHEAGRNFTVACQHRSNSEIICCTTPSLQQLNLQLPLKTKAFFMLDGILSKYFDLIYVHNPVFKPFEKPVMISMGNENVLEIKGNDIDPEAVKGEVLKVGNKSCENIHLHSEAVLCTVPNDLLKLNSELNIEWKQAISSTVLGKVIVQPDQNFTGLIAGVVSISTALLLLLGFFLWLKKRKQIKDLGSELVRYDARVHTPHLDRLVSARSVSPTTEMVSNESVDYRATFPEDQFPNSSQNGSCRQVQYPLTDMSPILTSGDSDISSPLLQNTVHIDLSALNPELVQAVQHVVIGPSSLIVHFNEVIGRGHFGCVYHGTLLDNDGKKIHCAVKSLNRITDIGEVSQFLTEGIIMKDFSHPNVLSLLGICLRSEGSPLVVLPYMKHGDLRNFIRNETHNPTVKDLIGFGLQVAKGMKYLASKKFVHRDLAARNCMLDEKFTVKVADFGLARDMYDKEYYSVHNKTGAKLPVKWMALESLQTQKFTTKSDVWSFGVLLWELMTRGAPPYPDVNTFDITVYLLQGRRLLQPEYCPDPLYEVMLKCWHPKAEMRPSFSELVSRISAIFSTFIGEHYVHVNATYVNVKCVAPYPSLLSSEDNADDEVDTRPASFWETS
Assay: c-Met kinase inhibitory activity assay (in vitro)
Type: biochemical
Details: ATP 30 uM, enzyme 0.25 nM; means from three independent experiments
Method: (§2) The in vitro inhibition assays of all final compounds against Mer and c-Met kinase were performed by Shanghai Bioduro Biological Technology Co., Ltd. (Shanghai, China). We prepared 1× buffer: HEPES 50 mM, MgCl2 10 mM, EGTA 1 mM, NP-40 0.0001%, DTT 2 mM; compound dilution with DMSO. For test compounds, a 100 × final concentration solution was prepared. About 100 nL compounds were transferred to a 384-well plate by using the automated liquid handler. The final DMSO% in the assay is 1%. Enzyme stock solutions were diluted with 1× assay buffer to a concentration of 0.5 nM to make a 2× working solution. […] Substrate solutions were diluted with 1× assay buffer. About 5 μL mix or buffer was added manually to the assay plate (ATP final 30 uM and TK-Sub-Biotin final 2 uM) using a multichannel pipette, spun down at 1000 rpm, and centrifuged for 30 s. After incubating at 30 °C for 60 min, 10 μL of detection solution was added to each well of the assay, mixed briefly with a centrifuge, and equilibrated for another 60 min. The luminescence was recorded using Envision.

Structure (SMILES) | IC50 [nM]
Cc1c(C(=O)Nc2ccc(Oc3ccnc(Nc4ccc(NS(=O)(=O)c5ccccc5)cc4)n3)cc2)c(=O)n(-c2ccccc2)n1C [Compound 14c] | > 1000
O=C(Nc1ccc(F)cc1)C1(C(=O)Nc2ccc(Oc3ccnc(Nc4ccc(NS(=O)(=O)c5ccccc5)cc4)n3)cc2)CC1 [Compound 18b] | 941 ± 65.9
Cc1c(C(=O)Nc2ccc(Oc3ccnc(Nc4cccc(NC(=O)CN5CCN(C)CC5)c4)n3)cc2)c(=O)n(-c2ccccc2)n1C [Compound 14d] | 144 ± 17.3
Cc1c(C(=O)Nc2ccc(Oc3ccnc(Nc4ccc(NC(=O)CN5CCN(C)CC5)c(F)c4)n3)cc2)c(=O)n(-c2ccccc2)n1C [Compound 14h] | 74.9 ± 12.2
Cc1c(C(=O)Nc2ccc(Oc3ccnc(Nc4ccc(N(C)C(=O)CN5CCN(C)CC5)cc4)n3)cc2)c(=O)n(-c2ccccc2)n1C [Compound 14i] | 224 ± 24.6
COCCNc1ccc(Nc2nccc(Oc3ccc(NC(=O)C4(C(=O)Nc5ccc(F)cc5)CC4)cc3)n2)cc1 [Compound 18e] | 77.3 ± 13.1

Other lines, results leading:

IC50 [nM] | Structure (SMILES)
15.4 ± 1.4 | CC(=O)N1CCN(c2ccc(Nc3nccc(Oc4ccc(NC(=O)C5(C(=O)Nc6ccc(F)cc6)CC5)cc4)n3)cc2)CC1 [Compound 18a]
52.7 ± 8.5 | O=C(NCCCN1CCOCC1)c1ccc(Nc2nccc(Oc3ccc(NC(=O)C4(C(=O)Nc5ccc(F)cc5)CC4)cc3)n2)cc1 [Compound 18d]
42.6 ± 8.1 | CC(C)N1CCN(CC(=O)Nc2ccc(Nc3nccc(Oc4ccc(NC(=O)C5(C(=O)Nc6ccc(F)cc6)CC5)cc4)n3)cc2)CC1 [Compound 18h]
48.7 ± 8.2 | CN1CCN(CC(=O)Nc2ccc(Nc3nccc(Oc4ccc(NC(=O)C5(C(=O)Nc6ccc(F)cc6)CC5)cc4)n3)cc2F)CC1 [Compound 18l]
51.2 ± 8 | CN1CCN(CC(=O)Nc2ccc(Nc3nccc(Oc4ccc(NC(=O)C5(C(=O)Nc6ccc(F)cc6)CC5)cc4)n3)cc2C#N)CC1 [Compound 18k]

Test system: MDA-MB-231 cells
Assay: Antiproliferation assay (CCK-8), MDA-MB-231
Type: cell-based
Details: Homo sapiens, MDA-MB-231; CCK-8, 72 h; read-out: IC50 antiproliferative MDA-MB0231
Method: as §1, with “The antiproliferative activities of the compounds against HepG2, MDA-MB-231, and HCT116 cell lines were tested by the standard CCK-8 method. Cell viability” for “Cell viability”

IC50 [nM] | Structure (SMILES)
29000 | COc1cc2nccc(Oc3ccc(NC(=O)C4(C(=O)Nc5ccc(F)cc5)CC4)cc3)c2cc1OC [Cabozantinib, reference compound]

Test system: not listed separately
Assay: Liver microsome stability assay
Type: in vitro ADME
Details: pH 7.4; human liver microsomes 0.2 mg/mL, test compound 1 μM, NADPH; read-out: CL Human
Method: Stock solution (10 mM) of each of test compound was prepared in DMSO. The stock solution for each compound was then diluted into 200 μM with acetonitrile. Incubation mixtures were prepared in a total volume of 200 μL with final component concentrations as follows: 0.1 M PBS (pH 7.4), NADPH (2 mM), liver microsomes (0.2 mg/mL), and test compound (1 μM) or positive control. NAPDH was added after a 5 min preincubation of all other components at 37 °C, then pipette-mixed to achieve a homogenous suspension and immediately transferred 20 μL of the incubate as a 0 min sample to wells in a “Quenching” plate, followed by pipette-mixing. At 5, 15, 30, and 60 min, we pipette-mixed the incubate and serially transferred samples of 20 μL of the incubate per time point to wells in a separate “Quenching” plate, followed by pipette-mixing. In “Quenching” plates, 200 μL of acetonitrile was added with IS. The 96 wells were centrifuged at 4000 rpm for 10 min. Then 50 μL of supernatant was mixed with 50 μL of ddH2O and injected into the LC-MS/MS system for analysis.

microsomal CLint at 1 μM [µL/min/mg] | Structure (SMILES)
360 | CN1CCN(CC(=O)Nc2ccc(Nc3nccc(Oc4ccc(NC(=O)C5(C(=O)Nc6ccc(F)cc6)CC5)cc4)n3)cc2F)CC1 [Compound 18l]

Same assay, conditions: pH 7.4; human liver microsomes 0.2 mg/mL, test compound 1 μM, NADPH; read-out: T1/2 Human

half-life at 1 μM [min] | Structure (SMILES)
9.6 | CN1CCN(CC(=O)Nc2ccc(Nc3nccc(Oc4ccc(NC(=O)C5(C(=O)Nc6ccc(F)cc6)CC5)cc4)n3)cc2F)CC1 [Compound 18l]

Molecular target: T1, Mer kinase (Homo sapiens, UniProt Q12866)
T1 sequence (Q12866 21-999): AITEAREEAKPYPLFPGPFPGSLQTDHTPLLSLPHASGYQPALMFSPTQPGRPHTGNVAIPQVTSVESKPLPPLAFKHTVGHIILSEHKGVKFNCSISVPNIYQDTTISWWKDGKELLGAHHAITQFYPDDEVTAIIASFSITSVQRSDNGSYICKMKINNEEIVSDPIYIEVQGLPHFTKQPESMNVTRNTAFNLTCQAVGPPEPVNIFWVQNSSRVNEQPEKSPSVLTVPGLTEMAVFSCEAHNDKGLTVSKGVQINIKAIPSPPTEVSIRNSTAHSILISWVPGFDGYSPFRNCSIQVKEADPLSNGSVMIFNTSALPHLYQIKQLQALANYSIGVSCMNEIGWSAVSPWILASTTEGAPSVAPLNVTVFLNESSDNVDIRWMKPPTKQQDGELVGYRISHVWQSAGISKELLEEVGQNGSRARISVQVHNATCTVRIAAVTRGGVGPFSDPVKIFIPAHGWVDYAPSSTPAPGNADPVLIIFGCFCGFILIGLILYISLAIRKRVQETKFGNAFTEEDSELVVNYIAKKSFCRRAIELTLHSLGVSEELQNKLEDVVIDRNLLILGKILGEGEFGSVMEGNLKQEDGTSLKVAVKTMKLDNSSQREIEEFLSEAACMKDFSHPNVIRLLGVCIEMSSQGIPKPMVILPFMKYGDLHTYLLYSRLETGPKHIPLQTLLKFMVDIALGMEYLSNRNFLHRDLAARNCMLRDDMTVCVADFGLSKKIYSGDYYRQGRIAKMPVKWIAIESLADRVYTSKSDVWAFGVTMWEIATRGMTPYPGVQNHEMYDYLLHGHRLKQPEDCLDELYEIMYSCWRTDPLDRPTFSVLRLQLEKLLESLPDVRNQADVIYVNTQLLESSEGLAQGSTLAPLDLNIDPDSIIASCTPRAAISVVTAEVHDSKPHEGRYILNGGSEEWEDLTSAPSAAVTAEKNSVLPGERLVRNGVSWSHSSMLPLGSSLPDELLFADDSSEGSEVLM
Assay: Mer kinase inhibitory activity assay (in vitro)
Type: biochemical
Details: ATP 30 uM, enzyme 0.25 nM; means from three independent experiments
Method: as §2

Structure (SMILES) | IC50 [nM]
Cc1c(C(=O)Nc2ccc(Oc3ccnc(Nc4ccc(NS(=O)(=O)c5ccccc5)cc4)n3)cc2)c(=O)n(-c2ccccc2)n1C [Compound 14c] | 166 ± 21.6
O=C(Nc1ccc(F)cc1)C1(C(=O)Nc2ccc(Oc3ccnc(Nc4ccc(NS(=O)(=O)c5ccccc5)cc4)n3)cc2)CC1 [Compound 18b] | > 10000
Cc1c(C(=O)Nc2ccc(Oc3ccnc(Nc4cccc(NC(=O)CN5CCN(C)CC5)c4)n3)cc2)c(=O)n(-c2ccccc2)n1C [Compound 14d] | 24.2 ± 2.6
Cc1c(C(=O)Nc2ccc(Oc3ccnc(Nc4ccc(NC(=O)CN5CCN(C)CC5)c(F)c4)n3)cc2)c(=O)n(-c2ccccc2)n1C [Compound 14h] | 12.5 ± 2
Cc1c(C(=O)Nc2ccc(Oc3ccnc(Nc4ccc(N(C)C(=O)CN5CCN(C)CC5)cc4)n3)cc2)c(=O)n(-c2ccccc2)n1C [Compound 14i] | 97.1 ± 12.7
COCCNc1ccc(Nc2nccc(Oc3ccc(NC(=O)C4(C(=O)Nc5ccc(F)cc5)CC4)cc3)n2)cc1 [Compound 18e] | 159 ± 17.4

Now from value to compound:

IC50 [nM] | Structure (SMILES)
85.3 ± 6.8 | CC(=O)N1CCN(c2ccc(Nc3nccc(Oc4ccc(NC(=O)C5(C(=O)Nc6ccc(F)cc6)CC5)cc4)n3)cc2)CC1 [Compound 18a]
42.4 ± 5.8 | O=C(NCCCN1CCOCC1)c1ccc(Nc2nccc(Oc3ccc(NC(=O)C4(C(=O)Nc5ccc(F)cc5)CC4)cc3)n2)cc1 [Compound 18d]
12.4 ± 1.9 | CC(C)N1CCN(CC(=O)Nc2ccc(Nc3nccc(Oc4ccc(NC(=O)C5(C(=O)Nc6ccc(F)cc6)CC5)cc4)n3)cc2)CC1 [Compound 18h]
18.3 ± 2.7 | CN1CCN(CC(=O)Nc2ccc(Nc3nccc(Oc4ccc(NC(=O)C5(C(=O)Nc6ccc(F)cc6)CC5)cc4)n3)cc2F)CC1 [Compound 18l]
10.2 ± 1.4 | CN1CCN(CC(=O)Nc2ccc(Nc3nccc(Oc4ccc(NC(=O)C5(C(=O)Nc6ccc(F)cc6)CC5)cc4)n3)cc2C#N)CC1 [Compound 18k]

Test system: HepG2 cells
Assay: Antiproliferation assay (CCK-8), HepG2
Type: cell-based
Details: Homo sapiens, HepG2; CCK-8, 72 h; read-out: IC50 antiproliferative HepG2
Method: as §1, with “The antiproliferative activities of the compounds against HepG2, MDA-MB-231, and HCT116 cell lines were tested by the standard CCK-8 method. Cell viability” for “Cell viability”

IC50 [nM] | Structure (SMILES)
1720 | COc1cc2nccc(Oc3ccc(NC(=O)C4(C(=O)Nc5ccc(F)cc5)CC4)cc3)c2cc1OC [Cabozantinib, reference compound]
